Laboratory results as given in US20130131321A1, “LIGANDS FOR ANTIBODY AND Fc-FUSION PROTEIN PURIFICATION BY AFFINITY CHROMATOGRAPHY” (GRAFFINITY PHARMACEUTICALS GMBH, priority 2010, published 2013).

Legend:
Tocilizumab = experiment: Microtiter plate chromatography of resins, Tocilizumab (bound, yield); assay type: binding, humanized
Bevacizumab Fc fragment = experiment: Microtiter plate chromatography of resins, Bevacizumab Fc fragment (bound); assay type: binding, humanized; conditions: Bevacizumab Fc fragment
Method: (§1) Resins were assessed in packed mode by microtiter plate chromatography. For each column, approximately 30 μl of resin were transferred to a 384-well filter plate and sealed with appropriate top frits.
(§2) Columns were equilibrated with 6.7 column volumes (cv) of phosphate buffered saline (0.15 M NaCl, 20 mM sodium phosphate, pH 7.3; PBS) prior to injection. Either 3.3 cv of whole IgGs dissolved at 0.75 mg ml^−1, Fab or Fc fragments dissolved at 0.25 mg ml^−1 (all three in PBS) or host cell proteins (HCP) were injected onto columns. Antibody fragments of Bevacizumab (Fab and Fc) were prepared by cleavage of whole IgG with papain protease (3) according to the protocol of the manufacturer. […] Volumes transferred were spun through columns at 50 g for 1-2 min. During injection of samples, acceleration was reduced to 10 g and centrifugation time increased to 5-10 min. Effluent fractions were collected in 384-well plates and concentrations of protein analyzed by Bradford assay. Protein masses mi, mft and me (see below) were calculated as the product of fraction volume and measured protein concentration.
(§3) The fraction of ‘bound’ protein was calculated as the difference between the total mass of protein injected mi and the mass of protein detected in the flowthrough mft, divided by the total mass of protein injected.
(§4) the fraction of ‘bound’ protein and the ‘yield’ of protein were calculated for each resin based on data for whole IgG-antibodies. In the case of Bevacizumab fragments and host cell proteins, only the fraction of ‘bound’ protein is given. Selectivity of resins was calculated from data for Bevacizumab Whole IgG and host cell proteins. Due to limited experimental precision, selectivity was truncated beyond values of 10.

host cell proteins (HCP) = experiment: Microtiter plate chromatography of resins, host cell proteins (bound); assay type: binding, CHO; conditions: host cell proteins
Bevacizumab Fab fragment = experiment: Microtiter plate chromatography of resins, Bevacizumab Fab fragment (bound); assay type: binding, humanized; conditions: Bevacizumab Fab fragment
Method: as §1, §2, §3, §4

Bevacizumab [1] = target: T1, Bevacizumab (Homo sapiens, UniProt P01857); experiment: Microtiter plate chromatography of resins, Bevacizumab whole IgG (bound, yield, selectivity); assay type: binding, humanized; conditions: for Bevacizumab IgG Bound (%): fraction of whole IgG Bevacizumab bound to resin; for Bevacizumab IgG Yield (%): mass of whole IgG Bevacizumab eluted / mass injected
T1 construct: fused on or other part: humanised anti-VEGF-A VH domain N-terminal of the gamma-1 constant region (engineered, no UniProt entry)

Bevacizumab [2] = experiment: as above; assay type: binding, humanized
Palivizumab = experiment: Microtiter plate chromatography of resins, Palivizumab (bound, yield); assay type: binding, humanized
[3] = system: human poly-IgG (h-poly-IgG); experiment: Microtiter plate chromatography of resins, human poly-IgG (bound, yield); assay type: binding
Bevacizumab [4] = target: T1, Bevacizumab; experiment: Langmuir isotherms by batch adsorption; assay type: binding, humanized; conditions: Bevacizumab in PBS pH 7.3, 25° C., at least 3 h; for Kd: read-out: Kd (dissociation constant, Langmuir isotherm)
Method: Experiments were performed with Bevacizumab as antibody. Parameters of Langmuir isotherms for purified antibody were determined by batch adsorption experiments in 96-well microtiter plates. In each well, 10 μl of sorbent slurry (50% v/v) were mixed with 100 μl of protein solution. Initial concentrations varied from 0.05-5 mg ml^−1 in phosphate-buffered saline (0.15 M NaCl, 20 mM phosphate buffer, pH 7.3; PBS). Reactions were agitated vigorously at 25° C. for at least 3 h. Afterwards, antibody concentration in the supernatents were measured by Bradford assay.
Parameters of Langmuir isotherms, i.e. dissociation constants Kd and maximum capacities qm, were determined from the measured concentrations in supernatants. Parameters were estimated by numerical fitting of the model equation derived by Chase (4).

Compound: COc1ccc(NC(=O)c2cc(-c3cc(Br)cs3)n(C)n2)cc1C(=O)NCCCN [Ligand L2, 5-[5-(4-Bromo-2-thienyl)-1-methylpyrazol-3-yl]carboxamido-2-methoxybenzoic acid N-(3-aminopropyl)amide]
- Tocilizumab Bound (%) (Tocilizumab): 100%
- Tocilizumab Yield (%) (Tocilizumab): 91%
- Bevacizumab Fc Bound (%) (Bevacizumab Fc fragment): 100%
- HCP Bound (%) (host cell proteins (HCP)): 59%
- Bevacizumab Fab Bound (%) (Bevacizumab Fab fragment): 100%
- Bevacizumab IgG Bound (%) (Bevacizumab [1]): 100%
- Bevacizumab IgG Yield (%) (Bevacizumab [1]): 96%
- Selectivity (Bevacizumab [2]): 1.7

Compound: COc1ccc(NC(=O)c2n[nH]c3ccc(Cl)cc23)cc1C(=O)NCCCN [Ligand L4, 5-(5-Chloro-1H-indazol-3-yl)carboxamido-2-methoxybenzoic acid N-(3-aminopropyl)amide]
- Tocilizumab Bound (%) (Tocilizumab): 100%
- Tocilizumab Yield (%) (Tocilizumab): 93%
- Palivizumab Bound (%) (Palivizumab): 100%
- Palivizumab Yield (%) (Palivizumab): 97%
- Bevacizumab Fc Bound (%) (Bevacizumab Fc fragment): 100%
- HCP Bound (%) (host cell proteins (HCP)): 57%
- Bevacizumab Fab Bound (%) (Bevacizumab Fab fragment): 38%
- Bevacizumab IgG Bound (%) (Bevacizumab [1]): 100%
- Bevacizumab IgG Yield (%) (Bevacizumab [1]): 98%
- Selectivity (Bevacizumab [2]): 1.8
- h-poly-IgG Bound (%) [3]: 100%
- h-poly-IgG Yield (%) [3]: 83%

Compound: COc1ccc(NC(=O)c2cncc(-c3cccs3)c2)cc1C(=O)NCCCN [Ligand L5, 2-Methoxy-5-[3-(2-thienyl)pyridin-5-yl]carboxamidobenzoic acid N-(3-aminopropyl)amide]
- Tocilizumab Bound (%) (Tocilizumab): 100%
- Tocilizumab Yield (%) (Tocilizumab): 80%
- Palivizumab Bound (%) (Palivizumab): 71%
- Palivizumab Yield (%) (Palivizumab): 72%
- Bevacizumab Fc Bound (%) (Bevacizumab Fc fragment): 84%
- HCP Bound (%) (host cell proteins (HCP)): 48%
- Bevacizumab Fab Bound (%) (Bevacizumab Fab fragment): 77%
- Bevacizumab IgG Bound (%) (Bevacizumab [1]): 100%
- Bevacizumab IgG Yield (%) (Bevacizumab [1]): 96%
- Selectivity (Bevacizumab [2]): 2.0
- h-poly-IgG Bound (%) [3]: 97%
- h-poly-IgG Yield (%) [3]: 69%

Compound: COc1ccc(NC(=O)c2cc(-c3cccs3)n(C)n2)cc1C(=O)NCCCN [Ligand L6, 2-Methoxy-5-[1-methyl-5-(2-thienyl)pyrazol-3-yl]carboxamidobenzoic acid N-(3-aminopropyl)amide]
- Tocilizumab Bound (%) (Tocilizumab): 100%
- Tocilizumab Yield (%) (Tocilizumab): 102%
- Palivizumab Bound (%) (Palivizumab): 98%
- Palivizumab Yield (%) (Palivizumab): 100%
- Bevacizumab Fc Bound (%) (Bevacizumab Fc fragment): 100%
- HCP Bound (%) (host cell proteins (HCP)): 54%
- Bevacizumab Fab Bound (%) (Bevacizumab Fab fragment): 79%
- Bevacizumab IgG Bound (%) (Bevacizumab [1]): 100%
- Bevacizumab IgG Yield (%) (Bevacizumab [1]): 100%
- Selectivity (Bevacizumab [2]): 2.0
- h-poly-IgG Bound (%) [3]: 94%
- h-poly-IgG Yield (%) [3]: 100%

Compound: COc1ccc(NC(=O)c2cc(-c3ccsc3)n(C)n2)cc1C(=O)NCCCN [Ligand L8, 2-Methoxy-5-[1-methyl-5-(3-thienyl)pyrazol-3-yl]carboxamidobenzoic acid N-(3-aminopropyl)amide]
- Tocilizumab Bound (%) (Tocilizumab): 100%
- Tocilizumab Yield (%) (Tocilizumab): 97%
- Palivizumab Bound (%) (Palivizumab): 100%
- Palivizumab Yield (%) (Palivizumab): 89%
- Bevacizumab Fc Bound (%) (Bevacizumab Fc fragment): 99%
- HCP Bound (%) (host cell proteins (HCP)): 44%
- Bevacizumab Fab Bound (%) (Bevacizumab Fab fragment): 82%
- Bevacizumab IgG Bound (%) (Bevacizumab [1]): 100%
- Bevacizumab IgG Yield (%) (Bevacizumab [1]): 96%
- Selectivity (Bevacizumab [2]): 2.3
- h-poly-IgG Bound (%) [3]: 100%
- h-poly-IgG Yield (%) [3]: 86%

Compound: COc1ccc(NC(=O)c2cncc(-c3ccco3)c2)cc1C(=O)NCCCN [Ligand L13, 5-[3-(2-Furyl)pyridin-5-yl]carboxamido-2-methoxybenzoic acid N-(3-aminopropyl)amide]
- Tocilizumab Bound (%) (Tocilizumab): 91%
- Tocilizumab Yield (%) (Tocilizumab): 79%
- Palivizumab Bound (%) (Palivizumab): 65%
- Palivizumab Yield (%) (Palivizumab): 58%
- qm (maximum capacity, Langmuir isotherm) (Bevacizumab [4]): 37 mg per ml resin
- Kd (Bevacizumab [4]): 411 µM
- Bevacizumab Fc Bound (%) (Bevacizumab Fc fragment): 64%
- HCP Bound (%) (host cell proteins (HCP)): 38%
- Bevacizumab Fab Bound (%) (Bevacizumab Fab fragment): 9%
- Bevacizumab IgG Bound (%) (Bevacizumab [1]): 100%
- Bevacizumab IgG Yield (%) (Bevacizumab [1]): 94%
- h-poly-IgG Bound (%) [3]: 76%
- h-poly-IgG Yield (%) [3]: 75%

Compound: Cn1nc(C(=O)Nc2cccc(C(=O)NCCCN)c2)cc1-c1ccco1 [Ligand L17, 3-[5-(2-Furyl)-1-methylpyrazol-3-yl]carboxamidobenzoic acid N-(3-aminopropyl)amide]
- Tocilizumab Bound (%) (Tocilizumab): 97%
- Tocilizumab Yield (%) (Tocilizumab): 89%
- Palivizumab Bound (%) (Palivizumab): 81%
- Palivizumab Yield (%) (Palivizumab): 70%
- qm (maximum capacity, Langmuir isotherm) (Bevacizumab [4]): 26 mg per ml resin
- HCP Bound (%) (host cell proteins (HCP)): 36%
- Bevacizumab IgG Bound (%) (Bevacizumab [1]): 100%
- Bevacizumab IgG Yield (%) (Bevacizumab [1]): 94%
- h-poly-IgG Bound (%) [3]: 91%
- h-poly-IgG Yield (%) [3]: 87%

Compound: COc1ccc(NC(=O)c2cncc(-c3ccoc3)c2)cc1C(=O)NCCCN [Ligand L22, 5-[3-(3-Furyl)pyridin-5-yl]carboxamido-2-methoxybenzoic acid N-(3-aminopropyl)amide]
- Tocilizumab Bound (%) (Tocilizumab): 62%
- Tocilizumab Yield (%) (Tocilizumab): 58%
- Palivizumab Bound (%) (Palivizumab): 40%
- Palivizumab Yield (%) (Palivizumab): 34%
- qm (maximum capacity, Langmuir isotherm) (Bevacizumab [4]): 29 mg per ml resin
- Kd (Bevacizumab [4]): 373 µM
- HCP Bound (%) (host cell proteins (HCP)): 33%
- Bevacizumab IgG Bound (%) (Bevacizumab [1]): 100%
- Bevacizumab IgG Yield (%) (Bevacizumab [1]): 92%
- h-poly-IgG Bound (%) [3]: 63%
- h-poly-IgG Yield (%) [3]: 58%

Compound: COc1ccc(NC(=O)c2cncc(C3CC3)c2)cc1C(=O)NCCCN [Ligand L23, 5-(3-Cyclopropylpyridin-5-yl)carboxamido-2-methoxybenzoic acid N-(3-aminopropyl)amide]
- Tocilizumab Bound (%) (Tocilizumab): 86%
- Tocilizumab Yield (%) (Tocilizumab): 85%
- Palivizumab Bound (%) (Palivizumab): 61%
- Palivizumab Yield (%) (Palivizumab): 57%
- qm (maximum capacity, Langmuir isotherm) (Bevacizumab [4]): 33 mg per ml resin
- Bevacizumab Fc Bound (%) (Bevacizumab Fc fragment): 67%
- HCP Bound (%) (host cell proteins (HCP)): 32%
- Bevacizumab Fab Bound (%) (Bevacizumab Fab fragment): 12%
- Bevacizumab IgG Bound (%) (Bevacizumab [1]): 100%
- Bevacizumab IgG Yield (%) (Bevacizumab [1]): 98%
- h-poly-IgG Bound (%) [3]: 75%
- h-poly-IgG Yield (%) [3]: 74%

Compound: C#Cc1cncc(C(=O)Nc2ccc(OC)c(C(=O)NCCCN)c2)c1 [Ligand L24, 5-(3-Ethynylpyridin-5-yl)carboxamido-2-methoxybenzoic acid N-(3-aminopropyl)amide]
- Tocilizumab Bound (%) (Tocilizumab): 41%
- Tocilizumab Yield (%) (Tocilizumab): 40%
- Palivizumab Bound (%) (Palivizumab): 24%
- Palivizumab Yield (%) (Palivizumab): 21%
- qm (maximum capacity, Langmuir isotherm) (Bevacizumab [4]): 33 mg per ml resin
- Kd (Bevacizumab [4]): 596 µM
- HCP Bound (%) (host cell proteins (HCP)): 29%
- Bevacizumab IgG Bound (%) (Bevacizumab [1]): 100%
- Bevacizumab IgG Yield (%) (Bevacizumab [1]): 97%
- h-poly-IgG Bound (%) [3]: 45%
- h-poly-IgG Yield (%) [3]: 47%
